Measured values as given in PubChem BioAssay (NCI).
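Following 48 hours of exposure in 96-well plates, responses at five concentrations were used to interpolate endpoints linearly. Abbreviation: GI50, concentration required for 50% inhibition of growth. TGI marks complete inhibition of growth.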

Columns and labels:
Test in all cases: growth of human tumour cells (NCI), 48 h; in the data active means GI50 below about 0.43 µM; inactive means the rest
[1] = tested on: TK-10 renal
[2] = tested on: T-47D breast
[3] = tested on: CAKI-1 renal
[4] = tested on: NCI/ADR-RES ovarian
[5] = tested on: UO-31 renal
[6] = tested on: OVCAR-4 ovarian
[7] = tested on: DU-145 prostate
[8] = tested on: HOP-62 NSCLC
[9] = tested on: SNB-75 CNS
[10] = tested on: SF-295 CNS
[11] = tested on: HCC-2998 colon
[12] = tested on: HL-60(TB) leukemia
[13] = tested on: OVCAR-3 ovarian
[14] = tested on: BT-549 breast
[15] = tested on: RXF 393 renal
[16] = tested on: LOX IMVI melanoma
[17] = tested on: EKVX NSCLC
[18] = tested on: SW-620 colon
[19] = tested on: SF-539 CNS
[20] = tested on: NCI-H460 lung
[21] = tested on: SK-MEL-2 melanoma
[22] = tested on: HT29 colon
[23] = tested on: MDA-MB-231 breast
[24] = tested on: IGROV1 ovarian
[25] = tested on: U251 CNS
[26] = tested on: OVCAR-5 ovarian
[27] = tested on: HCT-15 colon
[28] = tested on: SK-MEL-28 melanoma
[29] = tested on: SNB-19 CNS
[30] = tested on: OVCAR-8 ovarian
[31] = tested on: NCI-H23 lung
[32] = tested on: A549 NSCLC
[33] = tested on: SF-268 CNS
[34] = tested on: MDA-MB-435
[35] = tested on: KM12 colon
[36] = tested on: CCRF-CEM leukemia
[37] = tested on: PC-3 prostate
[38] = tested on: 786-0 renal
[39] = tested on: MALME-3M melanoma
[40] = tested on: A498 renal
[41] = tested on: MOLT-4 leukemia
[42] = tested on: NCI-H226 lung
[43] = tested on: HCT-116 colon
[44] = tested on: SK-OV-3 ovarian
[45] = tested on: SK-MEL-5 melanoma
[46] = tested on: UACC-62 melanoma
[47] = tested on: HOP-92 NSCLC
[48] = tested on: RPMI-8226 leukemia
[49] = tested on: MCF7 breast
[50] = tested on: M14 melanoma
[51] = tested on: SR leukemia
[52] = tested on: UACC-257 melanoma
[53] = tested on: HS 578T breast
[54] = tested on: SN12C renal
[55] = tested on: NCI-H522 lung
[56] = tested on: ACHN renal
[57] = tested on: COLO 205 colon
[58] = tested on: K-562 leukemia

CC[C@H](C)[C@H](NC(=O)C12C3C4C1C1C2C3C41NC)C(=O)N(C)[C@H](C[C@@H](OC(C)=O)c1nc(C(=O)N[C@@H](Cc2ccccc2)C[C@H](C)C(=O)OC)cs1)C(C)C (stereo not given in full)
2510 nM: TGI [57]
inactive: GI50 [1] > 4000 nM | GI50 [2] > 14300 nM | GI50 [3] 5570 nM | GI50 [4] 8150 nM | GI50 [5] 4160 nM | GI50 [6] 1750 nM | GI50 [7] 446 nM | GI50 [8] 1180 nM | GI50 [10] 526 nM | GI50 [16] 493 nM | GI50 [17] 1670 nM | GI50 [18] 459 nM | GI50 [19] 546 nM | GI50 [20] 617 nM | GI50 [23] 798 nM | GI50 [24] 880 nM | GI50 [25] 594 nM | GI50 [26] > 7570 nM | GI50 [27] 1270 nM | GI50 [28] 714 nM | GI50 [29] 701 nM | GI50 [30] 717 nM | GI50 [31] 705 nM | GI50 [32] 4610 nM | GI50 [33] 1300 nM | GI50 [35] 517 nM | GI50 [36] 445 nM | GI50 [37] 645 nM | GI50 [38] 760 nM | GI50 [41] 713 nM | GI50 [42] > 7850 nM | GI50 [44] 698 nM | GI50 [47] > 6280 nM | GI50 [52] 655 nM | GI50 [53] 693 nM | GI50 [54] 896 nM | GI50 [56] 1210 nM
3510 nM: TGI [14]
> 6290 nM: TGI [48]
5540 nM: TGI [50]
> 14300 nM: TGI [1] | TGI [2] | TGI [3] | TGI [4] | TGI [5] | TGI [6] | TGI [7] | TGI [9] | TGI [11] | TGI [15] | TGI [16] | TGI [17] | TGI [18] | TGI [20] | TGI [21] | TGI [24] | TGI [25] | TGI [26] | TGI [27] | TGI [28] | TGI [29] | TGI [30] | TGI [31] | TGI [32] | TGI [33] | TGI [35] | TGI [36] | TGI [37] | TGI [38] | TGI [39] | TGI [41] | TGI [42] | TGI [43] | TGI [44] | TGI [46] | TGI [47] | TGI [49] | TGI [51] | TGI [52] | TGI [54] | TGI [56] | TGI [58]
> 13000 nM: TGI [23]
4530 nM: TGI [40]
967 nM: TGI [55]
> 11700 nM: TGI [8]
active: GI50 [9] 319 nM | GI50 [11] 369 nM | GI50 [12] 56.8 nM | GI50 [13] 87.2 nM | GI50 [14] 214 nM | GI50 [15] 413 nM | GI50 [21] 223 nM | GI50 [22] 290 nM | GI50 [34] 48.9 nM | GI50 [40] 296 nM | GI50 [43] 346 nM | GI50 [45] 159 nM | GI50 [46] 118 nM | GI50 [48] 143 nM | GI50 [49] 55.2 nM | GI50 [50] 420 nM | GI50 [51] 46.9 nM | GI50 [55] 56.1 nM | GI50 [57] 402 nM | GI50 [58] 219 nM
> 11900 nM: TGI [53]
> 4780 nM: TGI [22]
2850 nM: TGI [45]
346 nM: TGI [12]
> 6080 nM: TGI [19]
377 nM: TGI [34]
1020 nM: TGI [13]
> 9290 nM: TGI [10]
